# pIC50: −log10 of the molar value.
# Molecular target: T1, Glucose-6-phosphate 1-dehydrogenase (Leuconostoc mesenteroides, UniProt P11411)
# T1 sequence (P11411 whole entry): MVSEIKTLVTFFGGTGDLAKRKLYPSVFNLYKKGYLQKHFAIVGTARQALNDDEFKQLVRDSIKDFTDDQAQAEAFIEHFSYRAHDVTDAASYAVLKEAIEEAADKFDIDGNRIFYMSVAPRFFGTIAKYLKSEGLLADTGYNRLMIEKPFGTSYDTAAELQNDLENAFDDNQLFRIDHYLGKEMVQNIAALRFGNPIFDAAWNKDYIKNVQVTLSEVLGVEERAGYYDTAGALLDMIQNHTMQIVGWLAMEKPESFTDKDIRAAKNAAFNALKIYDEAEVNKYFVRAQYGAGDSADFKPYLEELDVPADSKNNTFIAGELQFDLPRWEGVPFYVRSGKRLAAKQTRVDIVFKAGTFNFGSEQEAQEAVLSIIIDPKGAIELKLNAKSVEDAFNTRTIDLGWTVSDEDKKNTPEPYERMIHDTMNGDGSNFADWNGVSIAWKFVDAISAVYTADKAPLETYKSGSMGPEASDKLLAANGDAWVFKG
# Assay: Leuconostoc G6PDH inhibition potency, SAR follow-up, counter-screen for TbHK1 inhibitor project, biochemical, analogue series, IC50 (AID 2579)
row,SMILES,pIC50
1,COc1ccc(C(=O)NCC(=O)O)cc1,< 4.60
2,Cc1cc(=O)n(-c2ccccc2)s1,< 4.60
3,O=c1cc(-c2ccccc2)sn1-c1ccccc1,< 4.60
4,COc1ccc(C(=O)Nc2ccccc2C(=O)O)cc1Cl,< 4.60
5,O=c1c2ccccc2sn1-c1ccccc1Cl,< 4.60
6,O=c1c2ccccc2sn1-c1ccccc1F,< 4.60
7,O=C(Nc1ccccc1)c1cc(F)ccc1S,< 4.60
8,O=c1c2cc(F)ccc2sn1-c1ccccc1Cl,< 4.60
9,Cc1ccccc1NC(=O)Cn1sc2ccccc2c1=O,< 4.60
10,O=C(Cn1sc2ccccc2c1=O)NCc1ccccc1,< 4.60
11,O=c1c2ccc(Br)cc2sn1-c1ccccc1,< 4.60
12,O=C(Cn1sc2ccccc2c1=O)NC1CCCCC1,< 4.60
13,O=C(Cn1sc2ccccc2c1=O)N1CCCCC1,< 4.60
14,O=c1c2cc(N3CCOCC3)ccc2sn1-c1ccccc1,< 4.60
15,O=c1c2cc(Br)ccc2[s+]([O-])n1-c1ccccc1 (stereo not drawn),< 4.60
16,N#Cc1ccccc1NC(=O)Cn1sc2ccccc2c1=O,< 4.60
17,O=C(Cn1sc2ccccc2c1=O)Nc1ccccc1Br,< 4.60
18,COc1ccc(C(=O)Nc2cccc(Cl)c2)cc1,< 4.60
19,COc1cccc(C(=O)Nc2cc(Cl)ccc2C(=O)O)c1,< 4.60
20,COc1ccc(C(=O)Nc2cc(Cl)ccc2S(N)(=O)=O)cc1,< 4.60
21,COC(=O)c1ccc(Cl)cc1NC(=O)c1ccc(Cl)cc1,< 4.60
22,COc1ccccc1C(=O)Nc1cc(Cl)ccc1C(=O)O,< 4.60

row,SMILES,pIC50
1,COC(=O)c1ccc(Cl)cc1NS(=O)(=O)c1ccc(OC)cc1,< 4.60
2,O=C(O)c1ccccc1NC(=O)c1ccccc1C(=O)O,< 4.60
3,COc1ccc(S(=O)(=O)Nc2cc(Cl)ccc2C(=O)O)cc1,< 4.60
4,COc1ccc(C(=O)N(C)c2cc(Cl)ccc2C(=O)O)cc1,< 4.60
5,COc1ccc(C(=O)Nc2cc(-c3ccccc3)ccc2C(=O)O)cc1,< 4.60
6,COc1ccc(C(=O)O)c(NC(=O)c2ccc(Cl)cc2)c1,< 4.60
7,COc1cc(C(=O)Nc2cc(Cl)ccc2C(=O)O)cc(OC)c1OC,< 4.60
8,CCCc1ccc(C(=O)Nc2cc(Cl)ccc2C(=O)O)cc1,< 4.60
9,Cn1c2ccccc2c(=O)n1-c1ccccc1 [1-methyl-2-phenyl-3-indazolone],< 4.60
10,"Cc1ccc(-n2sc3cc(F)ccc3c2=O)c(C)c1 [2-(2,4-dimethylphenyl)-6-fluoranyl-1,2-benzothiazol-3-one]",< 4.60
11,"O=c1c2ccccc2sn1-c1cccc(Cl)c1 [2-(3-chlorophenyl)-1,2-benzothiazol-3-one]",< 4.60
12,"CC(C(=O)Nc1ccccc1)n1sc2ccccc2c1=O (stereo not drawn) [2-(3-keto-1,2-benzothiazol-2-yl)-N-phenyl-propionamide (9)]",< 4.60
13,"COc1cccc(-n2sc3ccccc3c2=O)c1 [2-(3-methoxyphenyl)-1,2-benzothiazol-3-one]",< 4.60
14,"O=c1c2ccccc2sn1-c1ccc(Cl)cc1 [2-(4-chlorophenyl)-1,2-benzothiazol-3-one]",< 4.60
15,"O=c1c2cc(F)ccc2sn1-c1ccc(Cl)cc1 [2-(4-chlorophenyl)-5-fluoranyl-1,2-benzothiazol-3-one]",< 4.60
16,"Cc1ccc(-n2sc3ccccc3c2=O)cc1 [2-(4-methylphenyl)-1,2-benzisothiazol-3(2H)-one]",< 4.60
17,"O=c1c2cccnc2sn1-c1ccccc1 [2-(Phenyl)-isothiazolo[5,4-b]pyridin-3(2H)-one]",< 4.60
18,O=c1ccsn1-c1ccccc1 [2-Phenyl-isothiazol-3-one],< 4.60
19,COc1ccc(C(=O)Nc2cc(C(F)(F)F)ccc2C(=O)O)cc1 [2-[(4-methoxybenzoyl)amino]-4-(trifluoromethyl)benzoic acid],< 4.60
20,COc1ccc(C(=O)NC(C(=O)O)c2ccccc2)cc1 (stereo not drawn) [2-[(4-methoxyphenyl)carbonylamino]-2-phenyl-ethanoic acid],< 4.60
21,COc1ccc(C(=O)Nc2cc(C)ccc2C(=O)O)cc1 [2-[(4-methoxyphenyl)carbonylamino]-4-methyl-benzoic acid],< 4.60
